The values below are quoted from earlier work in patent publication US20090004290A1, “RED YEAST RICE COMPOUND FOR CANCER CHEMOPREVENTION” (priority 2007, published 2009).

In data set [1] the test system is total, breast, colorectal, or other site-specific cancers. To be noted: 100 mg alternate day, average 10 years of treatment, women.
Data set [2] relates to lung cancer. To be noted: interim analysis of over 3200 participants.
The test system of data set [3] is lung cancer. Conditions: secondary endpoint; follow up of over 1300 participants; selenium supplementation.
Data set [4] relates to lung cancer.

SMILES strings stand for the structures.

`CC(=O)Oc1ccccc1C(=O)O` [aspirin, acetylsalicylic acid]: the “risk of total, breast, colorectal, or other site-specific cancers” value in data set [1] is reported as “does not lower risk”.
For `[Zn]` [zinc, Zinc], the “trend of lung cancer with supplementation / dietary intake” value in data set [2] is given as “significant chemoprotective trend”.
Regarding `[Cu]` [copper, Copper], in data set [2], the “trend of lung cancer with supplementation / dietary intake” value is given as “protective trend”.
Take `[Se]` [selenium, Selenium]: the “hazard ratio (lung cancer)” value in data set [3] is listed as 0.56. Further, the “trend of lung cancer with supplementation / dietary intake” value in data set [2] is on record as “significant inverse trend”.
`Cc1c(C)c2c(c(C)c1O)CC[C@@](C)(CCC[C@H](C)CCC[C@H](C)CCCC(C)C)O2` [Alpha-tocopherol]: in data set [4] (participants that received Alpha-tocopherol), the “mortality due to hemorrhagic stroke” value is recorded as “higher mortality”. Besides, the “decrease incidence of lung cancer” value in data set [4] (participants with highest blood levels vs quartile with lowest levels) is on record as 19%.
